Measurements taken from article doi:10.1101/2023.07.01.547317v1 (biorxiv, 2023).
pKd: −log10 of the molar value.

Target: MoIcl1 (Pyricularia oryzae, UniProt P0CT06)
Assay: biochemical
Assay type: binding

Chain of MoIcl1 (P0CT06 whole entry, looked up): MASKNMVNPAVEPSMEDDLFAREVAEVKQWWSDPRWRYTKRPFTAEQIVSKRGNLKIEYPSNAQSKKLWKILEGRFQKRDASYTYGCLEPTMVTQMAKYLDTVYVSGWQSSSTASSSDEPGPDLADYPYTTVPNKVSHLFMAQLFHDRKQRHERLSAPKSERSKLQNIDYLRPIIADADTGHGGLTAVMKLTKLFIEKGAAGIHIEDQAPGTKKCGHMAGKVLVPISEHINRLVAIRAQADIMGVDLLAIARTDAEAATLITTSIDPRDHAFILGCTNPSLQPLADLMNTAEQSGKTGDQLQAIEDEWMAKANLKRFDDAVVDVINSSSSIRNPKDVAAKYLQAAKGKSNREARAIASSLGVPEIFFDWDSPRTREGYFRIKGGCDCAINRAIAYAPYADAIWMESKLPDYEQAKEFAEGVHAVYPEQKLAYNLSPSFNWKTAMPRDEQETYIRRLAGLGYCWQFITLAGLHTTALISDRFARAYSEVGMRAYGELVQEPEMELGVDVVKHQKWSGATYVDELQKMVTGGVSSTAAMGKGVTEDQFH

## COc1ccc2[nH]cc(CCNC(C)=O)c2c1 [melatonin, N-acetyl-5-methoxytryptamine]
  pKd: 3.54
